Legend:
[1] = Prodrug conversion in rat liver lysosomal homogenate assessed as H-Lys(Dau=Aoa-Cys)-OH formation at 0.1 ug/uL after 24 hrs by LC-MS analysis; assay type: ADME, tissue-based
MCF7 = assay: Cytostatic activity against human MCF7 cells after 72 hrs by MTT assay; assay type: functional, cell-based; conditions: MCF7, 72 h
[2] = Proteolytic stability in Tris-HCl/CaCl2 buffer at pH 7.8 in presence of alpha-chymotrypsin assessed as cleavage of compound at -3Trp-4Xxx- in second arm of dimer at 0.1 ug/uL after 4 hrs by mass spectrometry; assay type: ADME; conditions: pH 7.8, 4 h
[3] = Proteolytic stability in Tris-HCl/CaCl2 buffer at pH 7.8 in presence of alpha-chymotrypsin assessed as compound degradation at 0.1 ug/uL after 6 hrs by mass spectrometry; assay type: ADME; conditions: pH 7.8, 6 h
[4] = Chemical stability of the compound in aqueous solution after 24 hrs by LC-MS analysis; assay type: physicochemical; conditions: buffer
Serum = assay: Metabolic stability in human serum at 10 uM after 24 hrs by LC-MS analysis; assay type: ADME, cell-free
[5] = Proteolytic stability in Tris-HCl/CaCl2 buffer at pH 7.8 in presence of alpha-chymotrypsin assessed as cleavage of compound at -3Trp-4Xxx- in one arm of dimer at 0.1 ug/uL measured after 1 hr by mass spectrometry; assay type: ADME; conditions: pH 7.8, 1 h
[6] = Proteolytic stability in NH4HCO3 buffer at pH 8.0 in presence of trypsin at 0.1 ug/uL after 24 hrs by mass spectrometry; assay type: ADME; conditions: isolated protein, pH 8, 24 h
[7] = Proteolytic stability in 0.1 % formic acid at pH 1.8 in presence of pepsin after 24 hrs by mass spectrometry; assay type: ADME; conditions: isolated protein, pH 1.8, 24 h
[8] = Drug metabolism in rat liver lysosomal homogenate assessed as [H-Lys(Dau=Aoa-Cys)-OH]2 formation at 0.1 ug/uL after 24 hrs by LC-MS analysis; assay type: ADME, tissue-based; conditions: tissue homogenate
[9] = Proteolytic stability in Tris-HCl/CaCl2 buffer at pH 7.8 in presence of alpha-chymotrypsin assessed as intact parent compound at 0.1 ug/uL measured after 24 hrs by mass spectrometry; assay type: ADME; conditions: pH 7.8, 24 h
[10] = Proteolytic stability in Tris-HCl/CaCl2 buffer at pH 7.8 in presence of alpha-chymotrypsin assessed as cleavage of compound at -3Trp-4Xxx- in second arm of dimer at 0.1 ug/uL after 24 hrs by mass spectrometry; assay type: ADME; conditions: pH 7.8, 24 h
[11] = Prodrug conversion in rat liver lysosomal homogenate assessed as {[H-Lys(Dau=Aoa-Cys)-OH] [H-Lys(Dau=Aoa-Cys)P-OH]} formation at 0.1 ug/uL after 24 hrs by LC-MS analysis; assay type: ADME, tissue-based
[12] = Prodrug conversion in rat liver lysosomal homogenate assessed as free daunorubicin at 0.1 ug/uL after 24 hrs by LC-MS analysis; assay type: ADME, tissue-based

Row | Drug metabolism [1] | IC50 (MCF7) | Stability [2] | Stability [3] | Stability [4] | Stability (Serum) | Stability [5] | Stability [6] | Stability [7] | Drug metabolism [8] | Stability [9] | Stability [10] | Drug metabolism [11] | Drug metabolism [12] | SMILES
1 | Active | 10.6 µM | – | – | – | – | – | – | – | – | – | – | – | – | COc1cccc2c1C(=O)c1c(O)c3c(c(O)c1C2=O)C[C@@](O)(/C(C)=N/OCC(=O)NCCCC[C@H](NC(=O)[C@H](Cc1c[nH]c2ccccc12)NC(=O)[C@H](CC(=O)O)NC(=O)[C@H](Cc1cnc[nH]1)NC(=O)[C@H](CO)N(C)C(=O)[C@H](Cc1c[nH]c2ccccc12)NC(=O)[C@H](Cc1cnc[nH]1)NC(=O)[C@@H]1CCC(=O)N1)C(=O)N1CCC[C@H]1C(=O)NCC(N)=O)C[C@@H]3O[C@H]1C[C@H](N)[C@H](O)[C@H](C)O1
2 | – | 6.2 µM | Stable | Unstable | Stable | Stable | Unstable | Stable | Stable | Active | Stable | Stable | – | – | COc1cccc2c1C(=O)c1c(O)c3c(c(O)c1C2=O)C[C@@](O)(/C(C)=N/OCC(=O)N[C@@H](CSSC[C@H](NC(=O)CO/N=C(\C)[C@]1(O)Cc2c(O)c4c(c(O)c2[C@@H](O[C@H]2C[C@H](N)[C@H](O)[C@H](C)O2)C1)C(=O)c1c(OC)cccc1C4=O)C(=O)NCCCC[C@H](NC(=O)[C@H](Cc1c[nH]c2ccccc12)NC(=O)[C@H](CC(=O)O)NC(=O)[C@H](Cc1cnc[nH]1)NC(=O)[C@H](CO)N(C)C(=O)[C@H](Cc1c[nH]c2ccccc12)NC(=O)[C@H](Cc1cnc[nH]1)NC(=O)[C@@H]1CCC(=O)N1)C(=O)N1CCC[C@H]1C(=O)NCC(N)=O)C(=O)NCCCC[C@H](NC(=O)[C@H](Cc1c[nH]c2ccccc12)NC(=O)[C@H](CC(=O)O)NC(=O)[C@H](Cc1cnc[nH]1)NC(=O)[C@H](CO)N(C)C(=O)[C@H](Cc1c[nH]c2ccccc12)NC(=O)[C@H](Cc1cnc[nH]1)NC(=O)[C@@H]1CCC(=O)N1)C(=O)N1CCC[C@H]1C(=O)NCC(N)=O)C[C@@H]3O[C@H]1C[C@H](N)[C@H](O)[C@H](C)O1
3 | – | 4.1 µM | Stable | Unstable | Stable | Stable | Unstable | Stable | Stable | – | Stable | Stable | Active | Not Active | COc1cccc2c1C(=O)c1c(O)c3c(c(O)c1C2=O)C[C@@](O)(/C(C)=N/OCC(=O)N[C@@H](CSSC[C@H](NC(=O)CO/N=C(\C)[C@]1(O)Cc2c(O)c4c(c(O)c2[C@@H](O[C@H]2C[C@H](N)[C@H](O)[C@H](C)O2)C1)C(=O)c1c(OC)cccc1C4=O)C(=O)NCCCC[C@H](NC(=O)[C@H](Cc1c[nH]c2ccccc12)NC(=O)[C@H](CC(=O)O)NC(=O)[C@H](Cc1cnc[nH]1)NC(=O)[C@H](CO)NC(=O)[C@H](Cc1c[nH]c2ccccc12)NC(=O)[C@H](Cc1cnc[nH]1)NC(=O)[C@@H]1CCC(=O)N1)C(=O)N1CCC[C@H]1C(=O)NCC(N)=O)C(=O)NCCCC[C@H](NC(=O)[C@H](Cc1c[nH]c2ccccc12)NC(=O)[C@H](CC(=O)O)NC(=O)[C@H](Cc1cnc[nH]1)NC(=O)[C@H](CO)NC(=O)[C@H](Cc1c[nH]c2ccccc12)NC(=O)[C@H](Cc1cnc[nH]1)NC(=O)[C@@H]1CCC(=O)N1)C(=O)N1CCC[C@H]1C(=O)NCC(N)=O)C[C@@H]3O[C@H]1C[C@H](N)[C@H](O)[C@H](C)O1

Source: ChEMBL document CHEMBL2390896, “Synthesis, enzymatic stability and in vitro cytostatic effect of Daunorubicin-GnRH-III derivative dimers” (Bioorg Med Chem Lett, 2013)
